Species: Rattus norvegicus
Experiment: DrugMatrix - Regimen: Daily Repeat
Type: toxicity, organism-based, Sprague-Dawley
Design: regimen Daily Repeat, gender Male, age 6-8 weeks
Details: in vivo, po, route oral GAVAGE, vehicle .5 % CMC; for ABSOLUTE BASOPHIL / ABSOLUTE EOSINOPHIL / ABSOLUTE LYMPHOCYTE / ABSOLUTE MONOCYTE / ABSOLUTE SEGMENTED NEUTROPHIL / BASOPHIL / EOSINOPHIL / ERYTHROCYTE COUNT / HEMATOCRIT / HEMOGLOBIN / LEUKOCYTE COUNT / LYMPHOCYTE / MEAN CORPUSCULAR HEMOGLOBIN / MEAN CORPUSCULAR HEMOGLOBIN CONCENTRATION / MEAN CORPUSCULAR VOLUME / MONOCYTE / NEUTROPHIL / NUCLEATED RED BLOOD CELLS / PLATELET COUNT: tissue Blood; for ALANINE AMINOTRANSFERASE / ALBUMIN / ALKALINE PHOSPHATASE / ASPARTATE AMINOTRANSFERASE / BLOOD UREA NITROGEN / CARBON DIOXIDE / CHLORIDE / CHOLESTEROL / CREATINE PHOSPHOKINASE / CREATININE / GLUCOSE / LACTATE DEHYDROGENASE / LIPASE / PHOSPHORUS / POTASSIUM / SODIUM / TOTAL BILIRUBIN / TOTAL PROTEIN / URIC ACID: tissue Plasma
[1] = 80 mg/kg, 72 h, dose level Low, time 3 day
[2] = 80 mg/kg, 120 h, dose level Low, time 5 day
[3] = 1500 mg/kg, 72 h, dose level High, time 3 day
[4] = 1500 mg/kg, 120 h, dose level High, time 5 day

## Cc1cc(=O)n(-c2ccccc2)n1C [ANTIPYRINE]
[1]
  ABSOLUTE BASOPHIL: 0 CELLS/uL
  ABSOLUTE EOSINOPHIL: 91.33 CELLS/uL
  ABSOLUTE LYMPHOCYTE: 12252 CELLS/uL
  ABSOLUTE MONOCYTE: 196 CELLS/uL
  ABSOLUTE SEGMENTED NEUTROPHIL: 1827.33 CELLS/uL
  BASOPHIL: 0%
  EOSINOPHIL: 0.67%
  ERYTHROCYTE COUNT: 5.35 x10E6/uL
  HEMATOCRIT: 34.23%
  HEMOGLOBIN: 13.5 G/DL
  LEUKOCYTE COUNT: 14.37 x10E3/uL
  LYMPHOCYTE: 86%
  MEAN CORPUSCULAR HEMOGLOBIN: 25.27 pg
  MEAN CORPUSCULAR HEMOGLOBIN CONCENTRATION: 39.43 G/DL
  MEAN CORPUSCULAR VOLUME: 64 fL
  MONOCYTE: 1.33%
  NEUTROPHIL: 12%
  NUCLEATED RED BLOOD CELLS: 0.33 /100WBC
  PLATELET COUNT: 1283.67 x10E3/uL
  ALANINE AMINOTRANSFERASE: 47.67 u/L
  ALBUMIN: 4.47 G/DL
  ALKALINE PHOSPHATASE: 419 u/L
  ASPARTATE AMINOTRANSFERASE: 82 u/L
  BLOOD UREA NITROGEN: 18 mg/dL
  CARBON DIOXIDE: 23.33 mmol/L
  CHLORIDE: 103.67 MEQ/L
  CHOLESTEROL: 77 mg/dL
  CREATINE PHOSPHOKINASE: 225 u/L
  CREATININE: 0.22 mg/dL
  GLUCOSE: 163 mg/dL
  LACTATE DEHYDROGENASE: 184 u/L
  LIPASE: 9.67 u/L
  PHOSPHORUS: 13.9 mg/dL
  POTASSIUM: 7.07 MEQ/L
  SODIUM: 147.1 MEQ/L
  TOTAL BILIRUBIN: 0.27 mg/dL
  TOTAL PROTEIN: 6.23 G/DL
  URIC ACID: 1.77 mg/dL
[2]
  ABSOLUTE BASOPHIL: 0 CELLS/uL
  ABSOLUTE EOSINOPHIL: 104 CELLS/uL
  ABSOLUTE LYMPHOCYTE: 12025 CELLS/uL
  ABSOLUTE MONOCYTE: 0 CELLS/uL
  ABSOLUTE SEGMENTED NEUTROPHIL: 871 CELLS/uL
  BASOPHIL: 0%
  EOSINOPHIL: 0.67%
  ERYTHROCYTE COUNT: 5.47 x10E6/uL
  HEMATOCRIT: 35.87%
  HEMOGLOBIN: 13.93 G/DL
  LEUKOCYTE COUNT: 13 x10E3/uL
  LYMPHOCYTE: 92.33%
  MEAN CORPUSCULAR HEMOGLOBIN: 25.53 pg
  MEAN CORPUSCULAR HEMOGLOBIN CONCENTRATION: 38.9 G/DL
  MEAN CORPUSCULAR VOLUME: 65.6 fL
  MONOCYTE: 0%
  NEUTROPHIL: 7%
  NUCLEATED RED BLOOD CELLS: 0.33 /100WBC
  PLATELET COUNT: 1274.33 x10E3/uL
  ALANINE AMINOTRANSFERASE: 48 u/L
  ALBUMIN: 4.27 G/DL
  ALKALINE PHOSPHATASE: 367.33 u/L
  ASPARTATE AMINOTRANSFERASE: 83 u/L
  BLOOD UREA NITROGEN: 15.67 mg/dL
  CARBON DIOXIDE: 26.33 mmol/L
  CHLORIDE: 101 MEQ/L
  CHOLESTEROL: 76.33 mg/dL
  CREATINE PHOSPHOKINASE: 353 u/L
  CREATININE: 0.16 mg/dL
  GLUCOSE: 179.67 mg/dL
  LACTATE DEHYDROGENASE: 147.67 u/L
  LIPASE: 8.67 u/L
  PHOSPHORUS: 12.13 mg/dL
  POTASSIUM: 7.07 MEQ/L
  SODIUM: 141.77 MEQ/L
  TOTAL BILIRUBIN: 0.13 mg/dL
  TOTAL PROTEIN: 5.97 G/DL
  URIC ACID: 2.27 mg/dL
[3]
  ABSOLUTE BASOPHIL: 0 CELLS/uL
  ABSOLUTE EOSINOPHIL: 55 CELLS/uL
  ABSOLUTE LYMPHOCYTE: 14551 CELLS/uL
  ABSOLUTE MONOCYTE: 220 CELLS/uL
  ABSOLUTE SEGMENTED NEUTROPHIL: 1207.33 CELLS/uL
  BASOPHIL: 0%
  EOSINOPHIL: 0.33%
  ERYTHROCYTE COUNT: 5.53 x10E6/uL
  HEMATOCRIT: 35.67%
  HEMOGLOBIN: 14.13 G/DL
  LEUKOCYTE COUNT: 16.03 x10E3/uL
  LYMPHOCYTE: 90.67%
  MEAN CORPUSCULAR HEMOGLOBIN: 25.6 pg
  MEAN CORPUSCULAR HEMOGLOBIN CONCENTRATION: 39.63 G/DL
  MEAN CORPUSCULAR VOLUME: 64.5 fL
  MONOCYTE: 1.33%
  NEUTROPHIL: 7.67%
  NUCLEATED RED BLOOD CELLS: 0.33 /100WBC
  PLATELET COUNT: 1257 x10E3/uL
  ALANINE AMINOTRANSFERASE: 71 u/L
  ALBUMIN: 4.27 G/DL
  ALKALINE PHOSPHATASE: 404.67 u/L
  ASPARTATE AMINOTRANSFERASE: 85 u/L
  BLOOD UREA NITROGEN: 14 mg/dL
  CARBON DIOXIDE: 37 mmol/L
  CHLORIDE: 99.33 MEQ/L
  CHOLESTEROL: 76 mg/dL
  CREATINE PHOSPHOKINASE: 183.33 u/L
  CREATININE: 0.17 mg/dL
  GLUCOSE: 141.67 mg/dL
  LACTATE DEHYDROGENASE: 103.33 u/L
  LIPASE: 9.67 u/L
  PHOSPHORUS: 10.07 mg/dL
  POTASSIUM: 6.57 MEQ/L
  SODIUM: 143.77 MEQ/L
  TOTAL BILIRUBIN: 0.2 mg/dL
  TOTAL PROTEIN: 5.83 G/DL
  URIC ACID: 1.53 mg/dL
[4]
  ABSOLUTE BASOPHIL: 0 CELLS/uL
  ABSOLUTE EOSINOPHIL: 0 CELLS/uL
  ABSOLUTE LYMPHOCYTE: 19193.67 CELLS/uL
  ABSOLUTE MONOCYTE: 792.67 CELLS/uL
  ABSOLUTE SEGMENTED NEUTROPHIL: 3680.33 CELLS/uL
  BASOPHIL: 0%
  EOSINOPHIL: 0%
  ERYTHROCYTE COUNT: 5.35 x10E6/uL
  HEMATOCRIT: 35.1%
  HEMOGLOBIN: 14.13 G/DL
  LEUKOCYTE COUNT: 23.67 x10E3/uL
  LYMPHOCYTE: 81.33%
  MEAN CORPUSCULAR HEMOGLOBIN: 26.43 pg
  MEAN CORPUSCULAR HEMOGLOBIN CONCENTRATION: 40.27 G/DL
  MEAN CORPUSCULAR VOLUME: 65.7 fL
  MONOCYTE: 3.67%
  NEUTROPHIL: 15%
  NUCLEATED RED BLOOD CELLS: 0.33 /100WBC
  PLATELET COUNT: 1282 x10E3/uL
  ALANINE AMINOTRANSFERASE: 57.67 u/L
  ALBUMIN: 4.27 G/DL
  ALKALINE PHOSPHATASE: 338.33 u/L
  ASPARTATE AMINOTRANSFERASE: 86 u/L
  BLOOD UREA NITROGEN: 16.33 mg/dL
  CARBON DIOXIDE: 36 mmol/L
  CHLORIDE: 103 MEQ/L
  CHOLESTEROL: 72.33 mg/dL
  CREATINE PHOSPHOKINASE: 309 u/L
  CREATININE: 0.24 mg/dL
  GLUCOSE: 135 mg/dL
  LACTATE DEHYDROGENASE: 379.67 u/L
  LIPASE: 10 u/L
  PHOSPHORUS: 10.8 mg/dL
  POTASSIUM: 7.71 MEQ/L
  SODIUM: 141.33 MEQ/L
  TOTAL BILIRUBIN: 0.2 mg/dL
  TOTAL PROTEIN: 5.9 G/DL
  URIC ACID: 1.2 mg/dL

— ChEMBL document CHEMBL3885881, “DrugMatrix”
